The record followed here is patent publication US7030242B2, “Selective inhibition of aggrecanase in osteoarthritis treatment” (Pfizer Inc, priority 1999, dated 2006).

Molecules are shown by their SMILES.

Assay [1] has as its target Human recombinant collagenase-3 (Homo sapiens, UniProt P45452). The assay can be described thus: Inhibition of human collagenase-3 (recombinant collagenase-3 assay). Conditions: Table 2; recombinant collagenase-3 assay; read-out: MMP-13 (IC50 class). The assay is classed as biochemical. The protocol:
Inhibition of Human Collagenase-3 (Recombinant Collagenase-3 Assay)
This assay is used in the invention to measure the potency (IC50s) of compounds for collagenase-3.
Human recombinant collagenase-3 is activated with 2 mM APMA (p-aminophenyl mercuric acetate) for about 2.0 hours, at about 37° C. and is diluted to about 240 ng/ml in assay buffer (50 mM Tris, pH 7.5, 200 mM sodium chloride, 5 mM calcium chloride, […], 0.02% BRIJ-35). Twenty-five micro-liters of diluted enzyme is added per well of a 96 well microfluor plate.
The final concentrations in the assay are 30 μM, 3 μM, 0.3 μM, and 0.03 μM.
Fluorescence readings (360 nm excitation; 450 nm emission) are taken at time 0 and about every 5 minutes for about 1 hour.
Positive controls and negative controls are set up in triplicate as outlined in the collagenase-1 assay. IC50's are determined as per inhibition of human collagenase (collagenase-1).

A further assay addresses T1, TACE (Homo sapiens, UniProt P78536).
T1 construct: Human mononuclear cells are isolated from anti-coagulated human blood; endogenous in cells; host or cells: human peripheral blood mononuclear cells, LPS stimulated
The assay can be described thus: Inhibition of soluble TNF-α production (TACE whole blood assay). The assay is classed as cell-based. Conditions: Table 2, read-out: TACE (IC50 class). The protocol: Inhibition of Soluble TNF-α Production (TACE Whole Blood Assay)
This assay is used in the invention to measure the potency (IC50s) of compounds for TACE.
Human mononuclear cells are isolated from anti-coagulated human blood using a one-step Ficoll-hypaque separation technique. (2) The mononuclear cells are washed three times in Hanks balanced salt solution (HBSS) with divalent cations and re-suspended to a density of 2×10^6/ml in HBSS containing 1% BSA.
180 μL of the cell suspension was aliquoted into flat bottom 96 well plates (Costar). Additions of compounds and LPS (100 ng/ml final concentration) gives a final volume of 200 μL. All conditions are performed in triplicate. After about a four hour incubation at about 37° C. in an humidified CO2 incubator, plates are removed and centrifuged (about 10 minutes at approximately 250×g) and the supernatants removed and assayed for TNF-α using the R&D ELISA Kit.

In a further assay the test system is aggrecanase. The assay can be described thus: Aggrecanase chondrocyte assay (35S-proteoglycan release, IL-1 stimulated). The assay is classed as cell-based, porcine. Conditions: Table 2; aggrecanase chondrocyte assay; read-out: Agg (aggrecanase IC50 class). On the procedure: Aggrecanase Chondrocyte Assay
This assay is used in the invention to measure the potency (IC50s) of compounds for aggrecanase.
Primary porcine chondrocytes from articular joint cartilage are isolated by sequential trypsin and collagenase digestion followed by collagenase digestion overnight and are plated at 2×10^5 cells per well into 48 well plates with 5 μCi/ml ^35S (1000 Ci/mmol) sulphur in type I collagen coated plates. Cells are allowed to incorporate label into their proteoglycan matrix (approximately 1 week) at 37° C., under an atmosphere of 5% CO2.
The night before initiating the assay, chondrocyte monolayers are washed two times in DMEM/1% PSF/G and then allowed to incubate in fresh DMEM/1% FBS overnight.
The following morning chondrocytes are washed once in DMEM/1% PSF/G. The final wash is allowed to sit on the plates in the incubator while making dilutions. Media and dilutions can be made as described in the Table I below.
Plates are labeled and only the interior 24 wells of the plate are used. On one of the plates, several columns are designated as IL-1 (no drug) and Control (no IL-1, no drug). These control columns are periodically counted to monitor 35S-proteoglycan release. Control and IL-1 media are added to wells (450 μl) followed by compound (50 μl) so as to initiate the assay. Plates are incubated at 37° C., with a 5% CO2 atmosphere.
At 40–50% release (when CPM from IL-1 media is 4–5 times control media) as assessed by liquid scintillation counting (LSC) of media samples, the assay is terminated (about 9 to about 12 hours). Media is removed from all wells and placed in scintillation tubes. Scintillate is added and radioactive counts are acquired (LSC). To solubilize cell layers, 500 μL of papain digestion buffer (0.2 M Tris, pH 7.0, 5 mM EDTA, 5 mM DTT, and 1 mg/ml papain) is added to each well. Plates with digestion solution are incubated at 60° C. overnight. The cell layer is removed from the plates the next day and placed in scintillation tubes. Scintillate is then added, and samples counted (LSC).
The percent of released counts from the total present in each well is determined. Averages of the triplicates are made with control background subtracted from each well.

Assay [2] addresses T2, Human recombinant collagenase-1 (Homo sapiens, UniProt P03956).
T2 sequence (P03956 100-469): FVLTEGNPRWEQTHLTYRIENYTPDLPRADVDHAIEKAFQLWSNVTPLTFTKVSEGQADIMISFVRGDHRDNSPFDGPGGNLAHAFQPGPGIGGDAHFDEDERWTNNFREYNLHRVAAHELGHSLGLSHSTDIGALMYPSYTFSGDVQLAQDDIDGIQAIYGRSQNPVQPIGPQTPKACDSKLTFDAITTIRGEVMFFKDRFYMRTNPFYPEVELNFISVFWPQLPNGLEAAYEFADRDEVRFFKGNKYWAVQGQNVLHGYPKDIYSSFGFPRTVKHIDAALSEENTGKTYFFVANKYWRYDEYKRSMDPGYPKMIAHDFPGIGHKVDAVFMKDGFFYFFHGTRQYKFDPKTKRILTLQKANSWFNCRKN
Description: Inhibition of human collagenase-1 (recombinant collagenase-1 assay). The format is biochemical. Conditions: Table 2, read-out: MMP-1 (IC50 class). On the procedure:
Inhibition of Human Collagenase-1 (Recombinant Collagenase-1 Assay)
This assay is used in the invention to measure the potency (IC50s) of compounds for collagenase-1.
Human recombinant collagenase-1 is activated with trypsin. The amount of trypsin is optimized for each lot of collagenase-1, but a typical reaction uses the following ratio: 5 mg trypsin per 100 mg of collagenase.
Stock solutions (10 mM) of inhibitors are made up in dimethylsulfoxide and then diluted using the following scheme: • 10 mM------>120 μM------>12 μM------>1.2 μM------>0.12 μM
Twenty-five microliters of each concentration is then added in triplicate to appropriate wells of a 96 well microfluor plate. The final concentration of inhibitor will be a 1:4 dilution after addition of enzyme and substrate. Positive controls (enzyme, no inhibitor) are set up in wells D7–D12 and negative controls (no enzyme, no inhibitors) are set in wells D1–D6.
Collagenase-1 is diluted to 240 ng/ml and […] is then added to appropriate wells of the microfluor plate. Final concentration of collagenase in the assay is 60 ng/ml.
Substrate (DNP-Pro-Cha-Gly-Cys(Me)-His-Ala-Lys(NMA)-NH2) is made as a 5 mM stock in dimethylsulfoxide and then diluted to 20 μM in assay buffer. The assay is initiated by the addition of […] substrate per well of the microfluor plate to give a final concentration of 10 μM.
Fluorescence readings (360 nm excitation, 460 nm emission) are taken at time 0 and then at about 20 minute intervals. The assay is conducted at a temperature of about 20 to about 25° C., preferably about 23° C. with a typical assay time of about 3 hours.
Fluorescence versus time is then plotted for both the blank and collagenase containing samples (data from triplicate determinations is averaged). A time point that provides a good signal (at least five fold over the blank) and that is on a linear part of the curve (usually around 120 minutes) is chosen to determine IC50 values. The zero time is used as a blank for each compound at each concentration and these values are subtracted from the 120 minute data. Data is plotted as inhibitor concentration versus % control (inhibitor fluorescence divided by fluorescence of collagenase alone ×100).

T1 sequence (P78536 215-824): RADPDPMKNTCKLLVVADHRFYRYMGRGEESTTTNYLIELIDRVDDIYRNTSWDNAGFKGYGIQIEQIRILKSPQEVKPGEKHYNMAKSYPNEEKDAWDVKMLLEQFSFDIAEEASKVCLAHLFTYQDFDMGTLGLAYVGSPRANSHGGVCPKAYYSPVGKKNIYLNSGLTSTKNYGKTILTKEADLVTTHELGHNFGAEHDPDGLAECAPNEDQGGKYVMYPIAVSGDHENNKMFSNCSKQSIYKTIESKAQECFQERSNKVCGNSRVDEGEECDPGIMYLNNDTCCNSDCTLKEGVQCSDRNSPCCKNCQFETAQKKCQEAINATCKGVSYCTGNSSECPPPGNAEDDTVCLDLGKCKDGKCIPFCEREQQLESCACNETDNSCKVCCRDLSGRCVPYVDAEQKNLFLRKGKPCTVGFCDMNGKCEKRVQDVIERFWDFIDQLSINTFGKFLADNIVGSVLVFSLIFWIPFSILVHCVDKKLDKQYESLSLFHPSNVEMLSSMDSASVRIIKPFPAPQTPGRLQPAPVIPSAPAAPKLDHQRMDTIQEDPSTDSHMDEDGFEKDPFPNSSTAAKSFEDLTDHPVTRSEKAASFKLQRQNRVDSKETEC

In general, IC50 refers to the point on the concentration scale where inhibition reaches its midpoint. In the case of `Cc1ccc(F)cc1COc1ccc(S(=O)(=O)N2CC(=O)N[C@@H](C)[C@@H]2C(=O)NO)cc1` [(2R,3S) 1-[4-(2-methyl-5-fluoro-benzyloxy)-benzenesulfonyl]-3-methyl-5-oxo-piperazine-2-carboxylic acidhydroxyamide], the half-maximal inhibitory concentration (IC50) was 10 to 20 nM in assay [1], less than 10 µM at TACE, less than 10 nM in the assay on aggrecanase and greater than 1000 nM in assay [2].
The corresponding values for `Cc1ccccc1COc1ccc(S(=O)(=O)N2CCN(C(=O)CN)[C@@H](C)[C@@H]2C(=O)NO)cc1` [(2R,3S) 1-[4-(2-methyl-benzyloxy)-benzenesulfonyl]-4-aminoacetyl-3-methyl-piperazine-2-carboxylic acidhydroxyamide] are 20 to 200 nM, less than 10 µM, less than 10 nM and greater than 1000 nM.
For the compound `CNC(=O)N1CCN(S(=O)(=O)c2ccc(OCc3cc(F)ccc3C)cc2)[C@@H](C(=O)NO)[C@@H]1C`, the IC50 in assay [1] is less than 10 nM; on TACE it was less than 10 µM; in the assay on aggrecanase it was less than 10 nM; in assay [2], greater than 1000 nM.
Turning to `C[C@@]1(O)CCCN(S(=O)(=O)c2ccc(OCc3ccc(F)cc3F)cc2)[C@H]1C(=O)NO` [(2R,3R) 1-[4-(2,4-difluoro-benzyloxy)-benzenesulfonyl]-3-hydroxy-3-methyl-piperidine-2-carboxylic acidhydroxyamide], the 50% inhibitory concentration (IC50) in assay [1] was less than 10 nM; on TACE, 10 to 20 µM; in the assay on aggrecanase it was 10 to 20 nM; in assay [2], 200 to 1000 nM.
On to `C[C@@]1(O)CCCN(S(=O)(=O)c2ccc(OCc3ccc(Cl)cc3F)cc2)[C@H]1C(=O)NO` [(2R,3R) 1-[4-(2-fluoro-4-chloro-benzyloxy)-benzenesulfonyl]-3-hydroxy-3-methyl-piperidine-2-carboxylic acidhydroxyamide], for which the IC50 in assay [1] is less than 10 nM; on TACE it was greater than 40 µM; with aggrecanase, less than 10 nM; in assay [2] it was 20 to 200 nM.
For the compound `CNC(=O)N1CCN(S(=O)(=O)c2ccc(OCc3ccc(F)cc3F)cc2)[C@@H](C(=O)NO)[C@@H]1C` [(2R,3S) 4-[4-(2,4-difluoro-benzyloxy)-benzenesulfonyl]-3-methyl-4-carboxylic acidmethylamide-piperazine-2-carboxylic acidhydroxyamide], the IC50 in assay [1] was less than 10 nM; on TACE, 10 to 20 µM; in the assay with aggrecanase, 10 to 20 nM; in assay [2], 200 to 1000 nM.
The corresponding values for `Cc1ccc(Cl)cc1COc1ccc(S(=O)(=O)N2C[C@H](O)CC(C)(C)[C@@H]2C(=O)NO)cc1` [(2R,5R) 1-[4-(2-methyl-5-chloro-benzyloxy)-benzenesulfonyl]-5-hydroxy-3,3-dimethyl-piperidine-2-carboxylic acidhydroxyamide] are 20 to 200 nM, 10 to 20 µM, 10 to 20 nM and greater than 1000 nM.
`CC1(C)C[C@@H](O)CN(S(=O)(=O)c2ccc(OCc3ccccc3Br)cc2)[C@H]1C(=O)NO` [(2R,5R) 1-[4-(2-bromo-benzyloxy)-benzenesulfonyl]-5-hydroxy-3,3-dimethyl-piperidine-2-carboxylic acidhydroxyamide]: the IC50 is less than 10 nM in assay [1], less than 10 µM at TACE, 10 to 20 nM with aggrecanase and 200 to 1000 nM in assay [2].
Take `C[C@@]1(O)CCCN(S(=O)(=O)c2ccc(OCc3ccc(F)cc3Cl)cc2)[C@H]1C(=O)NO` [(2R,3R) 1-[4-(2-chloro-4-fluoro-benzyloxy)-benzenesulfonyl]-3-hydroxy-3-methyl-piperidine-2-carboxylic acidhydroxyamide]: the IC50 in assay [1] is less than 10 nM; on TACE it was 10 to 20 µM; in the assay with aggrecanase, less than 10 nM; in assay [2], 200 to 1000 nM.
Regarding `Cc1c(F)cccc1COc1ccc(S(=O)(=O)N2C[C@H](O)CC(C)(C)[C@@H]2C(=O)NO)cc1` [(2R,5R) 1-[4-(2-methyl-3-fluoro-benzyloxy)-benzenesulfonyl]-5-hydroxy-3,3-dimethyl-piperidine-2-carboxylic acidhydroxyamide], the IC50 in assay [1] was less than 10 nM; at TACE, less than 10 µM; with aggrecanase, less than 10 nM; in assay [2] it was 200 to 1000 nM.
For `Cc1c(F)cccc1COc1ccc(S(=O)(=O)N2CCC[C@@](C)(O)[C@@H]2C(=O)NO)cc1` [(2R,3R) 1-[4-(2-methyl-3-fluorobenzyloxy)-benzenesulfonyl]-3-hydroxy-3-methyl-piperidine-2-carboxylic acidhydroxyamide], the IC50 in assay [1] is less than 10 nM; on TACE it was less than 10 µM; in the assay with aggrecanase it was 10 to 20 nM; in assay [2], greater than 1000 nM.
For the compound `CC1(C)C[C@@H](O)CN(S(=O)(=O)c2ccc(OCc3ccc(Cl)cc3Cl)cc2)[C@H]1C(=O)NO` [(2R,5R) 1-[4-(2,4-dichloro-benzyloxy)-benzenesulfonyl]-5-hydroxy-3,3-dimethyl-piperidine-2-carboxylic acidhydroxyamide], the IC50 in assay [1] was less than 10 nM; on TACE, 20 to 40 µM; in the assay on aggrecanase, less than 10 nM; in assay [2] it was 200 to 1000 nM.
